Active and inactive are the calls of the source.
Key:
SK-HEP1 [1] = test: Anti-invasive activity in human SK-HEP1 cells overexpressing PC assessed as suppression of cell invasion at 0.05 nM measured after 48 hrs by transwell assay; assay type: functional, cell-based
HCCLM3 [2] = test: Antiinvasive activity against human HCCLM3 cells assessed as reduction in cell invasion at 0.05 to 1 nM by matrigel transwell assay; assay type: functional, cell-based; conditions: dose 0.05-1 nM
HCCLM3 [3] = test: Induction of glycolysis in PC knockout human HCCLM3 cells assessed as intracellular glucose consumption at 10 nM; assay type: functional, cell-based
HepG2 [4] = test: Cytotoxicity against PC knockout human HepG2 cells assessed as reduction in cell viability at 20 to 100 nM measured after 48 hrs by MTT assay; assay type: functional, cell-based; conditions: dose 20-100 nM
HCCLM3 [5] = test: Induction of apoptosis in human HCCLM3 cells assessed as cell shrinkage at 20 nM incubated for 24 hrs by DAPI staining based phase contrast microscopic analysis; assay type: functional
HCCLM3 [6] = test: Antimigratory activity in human HCCLM3 cells assessed as inhibition of scratch closure at 0.05 to 1 nM measured after 24 hrs by wound healing assay; assay type: functional, cell-based; conditions: dose 0.05-1 nM
SK-HEP1 [7] = test: Antiproliferative activity against human SK-HEP1 cells transfected with PC-flag plasmid assessed as reduction in cell viability incubated for 48 hrs by MTT assay; assay type: functional, cell-based
HepG2 [8] = test: Competitive inhibition of recombinant pyruvate carboxylase in human HepG2 cell lysate in presence of Erianin at 20 uM for 120 mins followed by irradiation of 365 nm UV light for 15 min by Native -PAGE analysis; assay type: subcellular
HepG2 [9] = test: Antiproliferative activity against human HepG2 cells assessed as inhibition of cell growth at 10 to 200 nM measured up to 3 days by MTT assay; assay type: functional, cell-based; conditions: dose 10-200 nM, time day <=3, TDE = time-dependent effect
SK-HEP1 [10] = test: Inhibition of mesenchymal transition in human SK-HEP1 cells overexpressing PC assessed as effect on N-cadherin expression; assay type: functional, cell-based
SK-HEP1 [11] = test: Inhibition of epithelial transition in human SK-HEP1 cells overexpressing PC assessed as effect on E-cadherin expression; assay type: functional, cell-based
MHCC97 = test: Antiproliferative activity against human MHCC97 cells assessed as inhibition of cell growth measured after 48 hrs by MTT assay; assay type: functional, cell-based; conditions: MHCC97, 48 h
HCCLM3 [12] = test: Induction of mitochondrial oxidative stress in human HCCLM3 cells overexpressing PC assessed as accumulation of ROS at 10 nM by DCFH-DA staining based flow cytometry analysis; assay type: functional, cell-based
HepG2 [13] = test: Antitumor activity against human HepG2 cells xenografted in NCR-nu/nu mouse assessed wet tumor weight at 50 mg/kg, ip administered alternate days for 21 days and measured 26 days post implantation (Rvb= 0.92 +/- 0.13 g); assay type: functional; conditions: time 21 day
HCCLM3 [14] = test: Induction of apoptosis in human HCCLM3 cells assessed as decrease in cell viability at 20 to 40 nM incubated for 48 hrs in presence of 2 mM OAA MTT assay; assay type: functional, cell-based; conditions: dose 20-40 nM
[15] = Systemic toxicity in NCR-nu/nu mouse bearing human HCCLM3 tumor assessed as pathological change in spleen at 25 to 50 mg/kg, ip administered alternate days for 21 days and measured 26 days post implantation by H and E staining based analysis; assay type: organism-based; conditions: in vivo, 504 h, dose 25-50 mg/kg, time 21 day
HepG2 [16] = test: Induction of caspase-mediated apoptosis in human HepG2 cells assessed as reduction in cell viability at 100 to 400 nM incubated for 48 hrs in presence of Z-VAD-FMK by MTT assay; assay type: functional, cell-based; conditions: dose 100-400 nM
HepG2 [17] = test: Antiproliferative activity against human HepG2 cells assessed as inhibition of cell growth measured after 48 hrs by MTT assay; assay type: functional, cell-based; conditions: HepG2, 48 h
[18] = Antitumor activity against human HCCLM3 cells xenografted in NCR-nu/nu mouse assessed wet tumor weight at 25 mg/kg, ip administered alternate days for 21 days and measured 26 days post implantation (Rvb= 1.835 +/- 0.15 g); assay type: functional; conditions: time 21 day
[19] = Systemic toxicity in NCR-nu/nu mouse bearing human HCCLM3 tumor assessed as pathological change in liver at 25 to 50 mg/kg, ip administered alternate days for 21 days and measured 26 days post implantation by H and E staining based analysis; assay type: organism-based; conditions: in vivo, 504 h, dose 25-50 mg/kg, time 21 day
[20] = Inhibition of pyruvate carboxylase in human HCCLM3 cells measured upto 24 hrs by PC assay kit; assay type: cell-based
HepG2 [21] = test: Effect on cell cycle arrest in human HepG2 cells assessed as increase accumulation of cells in G2/M phase at 20 nM measured upto 24 hrs hrs by propidium iodide staining based flow cytometry analysis; assay type: functional; conditions: time hrs <=24, TDE = time-dependent effect
HCCLM3 [22] = test: Induction of apoptosis in human HCCLM3 cells transfected with PC-flag plasmid assessed as reduction in cell viability at 20 to 100 nM incubated for 24 hrs by MTT assay; assay type: functional, cell-based; conditions: dose 20-100 nM
[23] = Inhibition of pyruvate carboxylase in human HepG2 cells measured upto 24 hrs by PC assay kit; assay type: cell-based
HCCLM3 [24] = test: Cytotoxicity against PC knockout human HCCLM3 cells assessed as reduction in cell viability at 20 to 100 nM measured after 48 hrs by MTT assay; assay type: functional, cell-based; conditions: dose 20-100 nM
HCCLM3 [25] = test: Inhibition of epithelial-mesenchymal transition in human HCCLM3 cells assessed as decrease in fibronectin expression level at 0.05 to 1 nM incubated for 24 hrs by Western blot analysis; assay type: functional, cell-based; conditions: dose 0.05-1 nM
HepG2 [26] = test: Induction of apoptosis in human HepG2 cells assessed as activation of caspase 3 measured after 24 hrs by Western blot analysis; assay type: functional, cell-based; conditions: dose 10-40 nM
HCCLM3 [27] = test: Anti-invasive activity against PC knockout human HCCLM3 cells assessed as suppression of cell invasion at 0.05 nM measured after 48 hrs by transwell assay; assay type: functional, cell-based
HCCLM3 [28] = test: Induction of glycolysis in human HCCLM3 cells assessed as decrease in level of malate at 5 nM; assay type: functional, cell-based
SK-HEP1 [29] = test: Inhibition of mesenchymal transition in human SK-HEP1 cells overexpressing PC assessed as effect on vimentin expression; assay type: functional, cell-based
HCCLM3 [30] = test: Cytotoxicity against human HCCLM3 cells assessed as reduction in cell viability at 5 to 20 nM incubated for 48 hrs in presence of H2O2 by MTT assay; assay type: functional, cell-based; conditions: dose 5-20 nM
HCCLM3 [31] = test: Induction of glycolysis in human HCCLM3 cells assessed as decrease in level of oxaloacetate at 5 nM; assay type: functional, cell-based
HCCLM3 [32] = test: Induction of glycolysis in human HCCLM3 cells assessed as decrease in level of L-lactate at 5 nM; assay type: functional, cell-based
HepG2 [33] = test: Effect on cell cycle arrest in human HepG2 cells assessed as decrease in accumulation of cells at G0/G1 phase at 20 nM measured upto 24 hrs hrs by propidium iodide staining based flow cytometry analysis; assay type: functional; conditions: time hrs <=24, TDE = time-dependent effect
HepG2 [34] = test: Induction of apoptosis in human HepG2 cells transfected with PC-flag plasmid assessed as reduction in cell viability at 20 to 100 nM incubated for 48 hrs by MTT assay; assay type: functional, cell-based; conditions: dose 20-100 nM
L02 = test: Cytotoxicity against human HL7702 cells assessed as inhibition of cell growth measured upto 400 nM measured after 48 hrs by MTT assay; assay type: toxicity, cell-based; conditions: l02, 48 h
[35] = Toxicity in NCR-nu/nu mouse bearing human HepG2 tumor assessed as effect on body weight at 25 to 50 mg/kg, ip administered alternate days for 21 days and measured every three days; assay type: organism-based; conditions: in vivo, 504 h, dose 25-50 mg/kg, time 21 day

COc1ccc(CCc2cc(OC)c(OC)c(OC)c2)cc1O
Non-Toxic: Activity [15] | Activity [19] | Activity (L02) | Activity [35]
13100 nM: IC50 [20]
active: Activity (SK-HEP1 [1]) | Activity (HCCLM3 [2]) | Activity (HCCLM3 [3]) | Activity (HCCLM3 [5]) | Activity (HCCLM3 [6]) | Activity (SK-HEP1 [7]) | inhibition (HepG2 [8]) | Activity (HepG2 [9]) Tde | Activity (HepG2 [21]) Tde | inhibition (HCCLM3 [25]) | Activity (HepG2 [26]) Dose-Dependent Effect | Activity (HCCLM3 [27]) | Activity (HCCLM3 [28]) | Activity (HCCLM3 [30]) | Activity (HCCLM3 [31]) | Activity (HCCLM3 [32]) | Activity (HepG2 [33]) Tde
99.3 nM: IC50 (HepG2 [17])
0.32 g: Activity (HepG2 [13])
386 nM: IC50 (MHCC97)
1.1883 g: Activity [18]
9.35 nM: IC50 [23]
inactive: Activity (HepG2 [4]) | inhibition (SK-HEP1 [10]) | inhibition (SK-HEP1 [11]) | Activity (HCCLM3 [12]) | Activity (HCCLM3 [14]) | Activity (HepG2 [16]) | Activity (HCCLM3 [22]) | Activity (HCCLM3 [24]) | inhibition (SK-HEP1 [29]) | Activity (HepG2 [34])

From ChEMBL document CHEMBL5046245, “Identification of Pyruvate Carboxylase as the Cellular Target of Natural Bibenzyls with Potent Anticancer Activity against Hepatocellular Carcinoma via Metabolic Reprogramming” (J Med Chem, 2022)
